In publication PMC9405596, “Evaluation of the Anti-Leishmania mexicana and -Trypanosoma brucei Activity and Mode of Action of 4,4′-(Arylmethylene)bis(3-methyl-1-phenyl-1H-pyrazol-5-ol)” (Biomedicines, 2022):
Entries after “also recorded” stand apart in the source; their conditions may differ. Like-named read-outs stand apart in the source and are kept apart here.

Legend:
[1] = test system: bloodstream form of T. b. brucei (strain 427); assay: Bioluminescence viability assay against bloodstream T. b. brucei expressing luciferase; conditions: for T. brucei SI vs. Hepatocytes: CC50 HepG2 hepatocytes/IC50 T. brucei; for T. brucei bloodstream SI vs. Macrophages: CC50 RAW macrophages/IC50 T. brucei; for activity at 10 µM / IC50: 24 h; for activity at 10 µM: read-out: T. brucei bloodstream % Growth (10 µM), 10 µM, 24 h; for anti-T. brucei activity in preliminary screening, in words: 10 µM
[2] = MTT cytotoxicity assay, murine macrophages; type: cell-based; conditions: mouse, RAW 264.7 macrophage cells, RAW 264.7, 48 h
Procedure: (§1) Murine macrophages (cell line RAW 264.7, ATCC® TIB-71™) were grown in Dulbecco’s Modified Eagle Medium (DMEM) (Gibco, Invitrogen, Waltham, MA, USA) supplemented with 10% fetal bovine serum (FBS) (Eurobio) and 100 IU/mL penicillin + 100 µg/mL streptomycin (Gibco), at 37 °C, in an atmosphere containing 5% CO2. Human hepatocyte cell line HepG2 (ATCC® HB-8065™) was grown in MEM (Gibco, Invitrogen) supplemented with 10% FBS (Gibco, Invitrogen), 1% NEAA (Gibco, Invitrogen), and 1% L-glutamine (Gibco, Invitrogen). The medium was renewed twice a week. For both cell lines, the viability was determined using the MTT assay as described before for leishmanicidal activity assessment, with some variations. Here, 5 × 10^4 cells/well in a final volume of 100 µL were seeded into a 96-well plate, in triplicate for RAW macrophages and in duplicate for HepG2. Saponin (2.4 mg/mL) and untreated cells were used as positive control and negative control, respectively. Compounds were dissolved in DMSO to obtain different serial concentrations (1.56 to 800 µM) for RAW macrophages and 100–0.001 µM for HepG2. The final concentration of DMSO in each well was 0.5%. After exposure to compounds for 48 h and 72 h for RAW and HepG2 cells, respectively, 10 µL/well of MTT (5 mg/mL in PBS) was added, incubated at 37 °C for 2 h in darkness, and cells were pelleted via centrifugation at 4400 rpm for 10 min. The medium was removed, and 100 µL/well of DMSO was added to dissolve formazan. The absorbance at 570 and 630 nm was recorded following the same procedure as with parasites.

[3] = MTT cytotoxicity assay, HepG2; type: cell-based; conditions: human, HepG2 cells, HepG2, 72 h, read-out: CC50 HepG2 Hepatocytes
Procedure: as §1

[4] = set-up: method as in PMID 34082794; conditions: ref [17]; cited from earlier work
[5] = test system: L. mexicana promastigotes; assay: MTT viability assay against L. mexicana promastigotes; type: cell-based, Leishmania mexicana; conditions: for L. mexicana Promastigote SI vs. Hepatocytes: CC50 HepG2 hepatocytes/IC50 L. mexicana; for IC50: 48 h; for L. mexicana Promastigote SI vs. Macrophage: CC50 RAW macrophages/IC50 L. mexicana
Procedure: The leishmanicidal activity against promastigotes from L. mexicana was evaluated by measuring parasites’ mitochondrial activity using the MTT (Thiazolyl Blue Tetrazolium Bromide) colorimetric assay as described previously. […] The medium was renewed every third day and subcultures were prepared when parasite density reached 1 × 10^7 parasites/mL. A Neubauer chamber was used to determine parasite density.

[6] = test system: hGrx1-roGFP2 redox biosensor in bloodstream T. brucei brucei; assay: In-cell redox assay with hGrx1-roGFP2 biosensor (flow cytometry); conditions: compound at its IC50, 1 h; for intracellular biosensor oxidation: relative to diamide (full oxidation) and DTT (reduction)
[7] = test system: recombinant roGFP2 biosensor; assay: In vitro fluorescence assay with recombinant roGFP2 biosensor; type: biochemical; conditions: 50 µM compound, 5 µM biosensor, 1 h
Procedure: The His-tagged recombinant form of a roGFP2 biosensor was expressed and purified from Escherichia coli (strain C41). An overnight pre-culture (LB medium + 50 µg/mL kanamycin, 220 rpm at 37 °C) of transformed cells was diluted 1:100 in fresh 2YT medium with 50 µg/mL kanamycin, and grown at 220 rpm and 37 °C until reaching an OD600 of ~0.8. At this time point, the culture was supplemented with IPTG (end concentration 1 mM) and the incubation was extended overnight at 100 rpm, 20 °C. Cells were harvested by centrifugation at 5000× g for 10 min at 4 °C and the cell pellet was resuspended in Buffer A (50 mM sodium phosphate, pH 8.0, 300 mM NaCl) at a ratio of 5 mL buffer per gram of pellet. Lysozyme (50 mg/mL) and DNAse (15 U/mL; Roche) were added to the cell homogenate and the suspension was incubated for 1 h on ice. Next, cells were sonicated for 2 min (30 s on/off pulses at an amplitude of 40%) and the lysate was centrifuged twice at 23,000× g, 4 °C, for 1 h. The clarified supernatant was filtered (0.4 µm filter) and applied to a 5 mL HisTrap column (GE Healthcare, Chicago, IL, USA) pre-equilibrated with Buffer A. The column was washed with 15 mL of Buffer A and then with 15 mL of Buffer A + 20 mM Imidazole. The recombinant protein was eluted from the column with Buffer A + 500 mM Imidazole. The elution fractions containing the biosensor (optical observation) were pooled and buffer exchanged against Buffer A using a PD-10 column (G25-sepharose, GE Healthcare). In order to remove the His-tag, the recombinant protein was digested overnight (4 °C) using 4.5 mg/mL TEV protease in Buffer A containing 5 mM DTT and 2 mM EDTA. Finally, the digested sample was applied to a 5 mL HisTrap column pre-equilibrated with Buffer A, and the flow-through containing the un-tagged biosensor was collected. The purity of the recombinant biosensor was evaluated by SDS-PAGE, and the protein concentration estimated by measuring absorbance at 280 nm (ε^280 23.290 M^−1cm^−1) in a Nanodrop DS-11 FX device. Upon purification, the biosensor was obtained in an oxidized state, as assessed via spectrofluorimetry (see below).
For the fluorescence assays, the recombinant biosensor was used at a final concentration of 5 µM and compounds at 50 µM in Buffer A with DMSO (final concentration 1%). DTT was added at 10 mM for achieving full biosensor reduction. Fluorescence spectra ([…] and emission) were recorded using a Cary Eclipse equipment. […]

[8] = Trypanosoma brucei, read-out: T. brucei bloodstream IC50, 24 h, bioluminescence
[9] = read-out: T. brucei bloodstream IC50, bioluminescence
[10] = Leishmania mexicana, read-out: L. mexicana Promastigote IC50, promastigotes, 48 h, MTT
[11] = read-out: L. mexicana Promastigote IC50, promastigotes, MTT

Cc1nn(-c2ccccc2)c(O)c1C(c1ccc(O)c(O)c1)c1c(C)nn(-c2ccccc2)c1O [Compound 2n]
T. brucei SI vs. Hepatocytes [1]: >9.8 | T. brucei bloodstream SI vs. Macrophages [1]: 7 | activity at 10 µM ([1]; Trypanosoma brucei): ≤ 50% | IC50 [1, 8]: 10 µM | IC50 [1, 9]: 10.2 ± 1.75 µM | CC50 at 48 h [2]: 70 ± 7 µM | CC50 at 72 h [3]: > 100 µM | radical scavenging activity relative to ascorbic acid [4]: higher | L. mexicana Promastigote SI vs. Hepatocytes [5]: >14.3 | IC50 [5, 10]: 7 ± 1 µM

Cc1nn(-c2ccccc2)c(O)c1C(c1ccc(F)cc1)c1c(C)nn(-c2ccccc2)c1O [Compound 2p]
activity at 10 µM ([1]; Trypanosoma brucei): 79 ± 8% | CC50 at 48 h [2]: 43 ± 6 µM | CC50 at 72 h [3]: 13 ± 2 µM | melting point: 183.8 to 185.8 °C | L. mexicana Promastigote SI vs. Hepatocytes [5]: 0.8 | L. mexicana Promastigote SI vs. Macrophage [5]: 2.5 | IC50 [5, 10]: 17 ± 1 µM

Cc1nn(-c2ccccc2)c(O)c1C(c1ccc(C(F)(F)F)cc1)c1c(C)nn(-c2ccccc2)c1O [Compound 2r]
T. brucei SI vs. Hepatocytes [1]: 2.0 | T. brucei bloodstream SI vs. Macrophages [1]: 5.4 | activity at 10 µM ([1]; Trypanosoma brucei): ≤ 50% | IC50 [1, 8]: 10 ± 3 µM | CC50 at 48 h [2]: 54 ± 3 µM | intracellular biosensor oxidation [6]: 56% | biosensor oxidation vs. DMSO [6]: 23% | CC50 at 72 h [3]: 20 ± 4 µM | direct oxidation of the reduced recombinant biosensor [7]: did not induce direct oxidation | prevention of biosensor oxidation (oxidized form) [7]: 11–13% | radical scavenging activity relative to ascorbic acid [4]: higher | L. mexicana Promastigote SI vs. Hepatocytes [5]: 6.1 | L. mexicana Promastigote SI vs. Macrophage [5]: 16.4

Cc1nn(-c2ccccc2)c(O)c1C(c1ccc(OC(F)(F)F)cc1)c1c(C)nn(-c2ccccc2)c1O [Compound 2s]
anti-T. brucei activity in preliminary screening, in words [1]: inactive | activity at 10 µM ([1]; Trypanosoma brucei): > 100% | CC50 at 48 h [2]: 49 ± 15 µM | CC50 at 72 h [3]: 26 ± 15 µM | melting point: 174.5 to 176 °C | L. mexicana Promastigote SI vs. Hepatocytes [5]: 8.7 | L. mexicana Promastigote SI vs. Macrophage [5]: 14.3

Cc1nn(-c2ccccc2)c(O)c1C(c1cccc(F)c1)c1c(C)nn(-c2ccccc2)c1O [Compound 2t]
anti-T. brucei activity in preliminary screening, in words [1]: inactive | activity at 10 µM ([1]; Trypanosoma brucei): > 100% | CC50 at 48 h [2]: 115 ± 21 µM | CC50 at 72 h [3]: 20 ± 11 µM | melting point: 178 to 179 °C | L. mexicana Promastigote SI vs. Hepatocytes [5]: 1.8 | L. mexicana Promastigote SI vs. Macrophage [5]: 10.5 | IC50 [5, 10]: 11 ± 1 µM

CSc1ccc(C(c2c(C)nn(-c3ccccc3)c2O)c2c(C)nn(-c3ccccc3)c2O)cc1 [Compound 2u]
anti-T. brucei activity in preliminary screening, in words [1]: inactive | activity at 10 µM ([1]; Trypanosoma brucei): > 100% | CC50 at 48 h [2]: 96 ± 27 µM | CC50 at 72 h [3]: 21 ± 10 µM | melting point: 209.1 to 211.3 °C | L. mexicana Promastigote SI vs. Hepatocytes [5]: 0.7 | L. mexicana Promastigote SI vs. Macrophage [5]: 3.2 | IC50 [5, 10]: 30 ± 10 µM

Cc1nn(-c2ccccc2)c(O)c1C(c1ccccc1C(F)(F)F)c1c(C)nn(-c2ccccc2)c1O [Compound 2v, 4,4′-[(2-trifluoromethylphenyl)methylene]bis(3-methyl-1-phenyl-1H-pyrazol-5-ol)]
anti-T. brucei activity in preliminary screening, in words [1]: inactive; also recorded: lacked activity | CC50 at 48 h [2]: 91 ± 18 µM | CC50 at 72 h [3]: 21 ± 2 µM | melting point: 245 to 248 °C | L. mexicana Promastigote SI vs. Hepatocytes [5]: 3.5 | L. mexicana Promastigote SI vs. Macrophage [5]: 15.1 | IC50 [5, 10]: ≤ 10 µM | IC50 [5, 11]: 6 ± 1 µM

Cc1nn(-c2ccccc2)c(O)c1C(c1cccc(C(F)(F)F)c1)c1c(C)nn(-c2ccccc2)c1O [Compound 2w, 4,4′-[(3-trifluoromethylphenyl)methylene]bis(3-methyl-1-phenyl-1H-pyrazol-5-ol)]
T. brucei SI vs. Hepatocytes [1]: 2.9 | T. brucei bloodstream SI vs. Macrophages [1]: 6.8 | activity at 10 µM ([1]; Trypanosoma brucei): ≤ 50% | IC50 [1, 8]: 9 µM | IC50 [1, 9]: 8.9 ± 0.7 µM | CC50 at 48 h [2]: 61 ± 4 µM | intracellular biosensor oxidation [6]: 63% | biosensor oxidation vs. DMSO [6]: 30% | CC50 at 72 h [3]: 26 ± 3 µM | direct oxidation of the reduced recombinant biosensor [7]: did not induce direct oxidation | prevention of biosensor oxidation (oxidized form) [7]: 11–13% | L. mexicana Promastigote SI vs. Hepatocytes [5]: 6.5 | L. mexicana Promastigote SI vs. Macrophage [5]: 15.2

Cc1nn(-c2ccccc2)c(O)c1C(c1cc(C(F)(F)F)cc(C(F)(F)F)c1)c1c(C)nn(-c2ccccc2)c1O [Compound 2x, 4,4′-{[3,5-bis(trifluoromethyl)phenyl]methylene}bis(3-methyl-1-phenyl-1H-pyrazol-5-ol)]
T. brucei SI vs. Hepatocytes [1]: 16 | T. brucei bloodstream SI vs. Macrophages [1]: 18 | IC50 [1, 8]: 1.9 ± 0.9 µM | SI against T. brucei, range over both mammalian cell lines ([1]; murine macrophages and HepG2 hepatocytes): 11.6–18 | CC50 at 48 h [2]: 34 ± 5 µM | intracellular biosensor oxidation [6]: 95% | biosensor oxidation vs. DMSO [6]: 63% | CC50 at 72 h [3]: 30 ± 2 µM | direct oxidation of the reduced recombinant biosensor [7]: did not induce direct oxidation | prevention of biosensor oxidation (oxidized form) [7]: 11–13% | L. mexicana Promastigote SI vs. Hepatocytes [5]: 4.3 | L. mexicana Promastigote SI vs. Macrophage [5]: 4.8 | IC50 [5, 10]: ≤ 10 µM | IC50 [5, 11]: 7 ± 2 µM
